Assay results taken from US20250296953A1, “3,4-THIAZOLO-STEROIDS AND METHODS OF MAKING AND USING THE SAME” (Arkansas State University - Jonesboro, priority 2018, published 2025).
Like-named read-outs stand apart in the source and are kept apart here.

Assays:
SK-MEL-25 = test: Melanoma cytotoxicity assay (resazurin); assay type: cell-based; conditions: SK-MEL-25 melanoma cells, 24 hours with compound, resazurin; concentration not given
Outline: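 Viability read by resazurin fluorescence (ex 544, em 590 nm) after 6 h, following 24 h compound exposure of cells plated 24 h earlier (~4000/well). Triplicate means, minus medium blank, divided by DMSO control; IC50 derived from sigmoidal dose-response curves.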

gliosarcoma (SF-539) = test: NCI 60 five dose screen; conditions: SF-539 (CNS Cancer), five dose
[1] = system: 60 different human tumor cell lines; conditions: for GI50 / TGI: five dose
[2] = A549/ATCC (Non-small Cell Lung Cancer)
[3] = HOP-62 (Non-small Cell Lung Cancer)
[4] = HOP-92 (Non-small Cell Lung Cancer)
[5] = MDA-MB-231/ATCC (Breast Cancer)
[6] = NCI-H23 (Non-small Cell Lung Cancer)
[7] = NCI-H322M (Non-small Cell Lung Cancer)
[8] = NCI-H460 (Non-small Cell Lung Cancer)
[9] = NCI-H522 (Non-small Cell Lung Cancer)

(1S,2R,13R,14S,18S)-7-(2,4-dimethylanilino)-2,18-dimethyl-6-thia-8-azapentacyclo[11.7.0.02,10.05,9.014,18]icosa-5(9),7,10-trien-17-one [IIa.14]
SK-MEL-25 (% inhibition) (SK-MEL-25): 15%
GI50 (gliosarcoma (SF-539)): 1620 nM
TGI (gliosarcoma (SF-539)): 3.08E−6
CC50 (gliosarcoma (SF-539); read-out: LC50): 5860 nM
CC50 [1]: > 100000 nM
GI50 ([1]; 786-0 (Renal Cancer)): 1620 nM
TGI ([1]; 786-0 (Renal Cancer)): 3.07E−6
GI50 ([1]; A498 (Renal Cancer)): 2540 nM
GI50 [1, 2]: 3500 nM
TGI [1, 2]: >1.00E−4
GI50 ([1]; ACHN (Renal Cancer)): 2080 nM
TGI ([1]; ACHN (Renal Cancer)): 4.53E−6
GI50 ([1]; BT-549 (Breast Cancer)): 1490 nM
TGI ([1]; BT-549 (Breast Cancer)): 2.94E−6
GI50 ([1]; CAKI-1 (Renal Cancer)): 2830 nM
TGI ([1]; CAKI-1 (Renal Cancer)): >1.00E−4
GI50 ([1]; CCRF-CEM (Leukemia)): 2450 nM
TGI ([1]; CCRF-CEM (Leukemia)): >1.00E−4
GI50 ([1]; COLO 205 (Colon Cancer)): 2500 nM
TGI ([1]; COLO 205 (Colon Cancer)): 6.54E−6
GI50 ([1]; DU-145 (Prostate Cancer)): 2040 nM
TGI ([1]; DU-145 (Prostate Cancer)): 5.18E−6
GI50 ([1]; EKVX (Non-small Cell Lung Cancer)): 2130 nM
GI50 ([1]; HCC-2998 (Colon Cancer)): 1900 nM
TGI ([1]; HCC-2998 (Colon Cancer)): 3.74E−6
GI50 ([1]; HCT-15 (Colon Cancer)): 2680 nM
GI50 ([1]; HCT-116 (Colon Cancer)): 1490 nM
TGI ([1]; HCT-116 (Colon Cancer)): 2.85E−6
GI50 ([1]; HL-60(TB) (Leukemia)): 2470 nM
TGI ([1]; HL-60(TB) (Leukemia)): 6.03E−6
GI50 [1, 3]: 2430 nM
TGI [1, 3]: 6.92E−6
GI50 [1, 4]: 1720 nM
TGI [1, 4]: 3.86E−6
GI50 ([1]; HS 578T (Breast Cancer)): 3750 nM
TGI ([1]; HS 578T (Breast Cancer)): >1.00E−4
GI50 ([1]; HT29 (Colon Cancer)): 2550 nM
TGI ([1]; HT29 (Colon Cancer)): 7.04E−6
GI50 ([1]; IGROV1 (Ovarian Cancer)): 2110 nM
TGI ([1]; IGROV1 (Ovarian Cancer)): 5.14E−6
GI50 ([1]; K-562 (Leukemia)): 2860 nM
TGI ([1]; K-562 (Leukemia)): >1.00E−4
GI50 ([1]; KM12 (Colon Cancer)): 2780 nM
GI50 ([1]; LOX IMVI (Melanoma)): 1640 nM
TGI ([1]; LOX IMVI (Melanoma)): 3.13E−6
GI50 ([1]; M14 (Melanoma)): 1850 nM
TGI ([1]; M14 (Melanoma)): 3.79E−6
GI50 ([1]; MALME-3M (Melanoma)): 1990 nM
TGI ([1]; MALME-3M (Melanoma)): 5.55E−6
GI50 ([1]; MCF7 (Breast Cancer)): 2310 nM
TGI ([1]; MCF7 (Breast Cancer)): >1.00E−4
GI50 [1, 5]: 2330 nM
TGI [1, 5]: 7.92E−6
GI50 ([1]; MDA-MB-435 (Melanoma)): 3020 nM
TGI ([1]; MDA-MB-435 (Melanoma)): >1.00E−4
GI50 ([1]; MDA-MB-468 (Breast Cancer)): 1930 nM
TGI ([1]; MDA-MB-468 (Breast Cancer)): 3.93E−6
GI50 ([1]; MOLT-4 (Leukemia)): 2490 nM
TGI ([1]; MOLT-4 (Leukemia)): >1.00E−4
GI50 [1, 6]: 2010 nM
TGI [1, 6]: 4.85E−6
GI50 ([1]; NCI-H226 (Non-small Cell Lung Cancer)): 2350 nM
GI50 [1, 7]: 4280 nM
TGI [1, 7]: >1.00E−4
GI50 [1, 8]: 2700 nM
TGI [1, 8]: 8.39E−6
GI50 [1, 9]: 1680 nM
TGI [1, 9]: 3.28E−6
GI50 ([1]; NCI/ADR-RES (Ovarian Cancer)): 2900 nM
TGI ([1]; NCI/ADR-RES (Ovarian Cancer)): >1.00E−4
GI50 ([1]; OVCAR-3 (Ovarian Cancer)): 2180 nM
TGI ([1]; OVCAR-3 (Ovarian Cancer)): 5.03E−6
GI50 ([1]; OVCAR-4 (Ovarian Cancer)): 2830 nM
TGI ([1]; OVCAR-4 (Ovarian Cancer)): >1.00E−4
GI50 ([1]; OVCAR-5 (Ovarian Cancer)): 2900 nM
TGI ([1]; OVCAR-5 (Ovarian Cancer)): >1.00E−4
GI50 ([1]; OVCAR-8 (Ovarian Cancer)): 2630 nM
TGI ([1]; OVCAR-8 (Ovarian Cancer)): 7.26E−6
GI50 ([1]; PC-3 (Prostate Cancer)): 1860 nM
TGI ([1]; PC-3 (Prostate Cancer)): 4.53E−6
GI50 ([1]; RXF 393 (Renal Cancer)): 1740 nM
TGI ([1]; RXF 393 (Renal Cancer)): 3.23E−6
GI50 ([1]; SF-268 (CNS Cancer)): 2770 nM
